One data set has as its system Vero C1008. Particulars: chlorocebus sabaeus, vero c1008, 48 h.
Data set [1] in a line: in vitro. The settings on record: PAMPA.
Description: (§1) Permeability of compound incubated for 3 hrs by UV plate reader based PAMPA assay
The next data set relates to SARS-CoV-2. Briefly: Antiviral activity against SARS-CoV-2 infected in African Green monkey Vero cells assessed as inhibition of viral cytopathic effect measured after 72 hrs by inverted microscopic method. The data set is classed as functional, organism-based, Vero E6. The settings on record: Severe acute respiratory syndrome coronavirus 2, Vero C1008, 72 h. Background: Damage to the host cells serves as the signal in cytopathic effect assays.

The nature of data set [2]: Metabolic stability of the compound in human liver microsomes S9 fraction preincubated with NADPH for 10 mins followed by compound addition at 50 uM measured upto 360 mins by HPLC analysis. Type of data set: ADME, subcellular. Particulars: read-out: Stability.
Data set [3] can be described thus: in vitro. Particulars: chlorocebus sabaeus, Vero E6 cells.
Description: Cytotoxicity against African green monkey Vero E6 cells assessed as reduction in cell viability preincubated for 2 hrs followed by SARS-CoV-2 addition measured after 24 hrs by CPE assay
The conditions of data set [4]: pampa, 3 h.
Description: as §1
A short description of data set [5]: Oral bioavailability in rat at 5 mg/kg. Type of data set: ADME, organism-based. The settings on record: in vivo.
For a further data set, the system named is Vero E6. Type of data set: cell-based. The settings on record: Chlorocebus aethiops, time 1.0 hrs.
Data set [6] can be described thus: in vitro. Particulars: chlorocebus sabaeus, Vero E6 cells. The source holds these as a separate data set.
Description: (§2) Cytotoxicity against African Green monkey Vero E6 cells assessed as reduction in cell viability measured after 48 hrs by MTT assay
Data set [7] is described as follows: Selectivity ratio of CC50 for African Green monkey Vero E6 cells to IC50 for SARS-CoV-2. The data set is classed as toxicity, Vero C1008.
A short description of data set [8]: Stability of compound in human plasma at 100 uM by HPLC analysis. Type of data set: ADME, cell-free. Particulars: read-out: Stability.

The source made the active and inactive calls. No cut-off for these calls is given here. Where only a bound is given, the exact number is not on record here.

Description for Vero C1008: as §2

Turning to `Cc1ccc(C(=O)Nc2ccc([N+](=O)[O-])cc2Cl)c(O)c1`, in the data set on Vero C1008, the CC50 was found to be 21.6 µM. For the same compound, in the data set “in vitro [1]”, the apparent permeability coefficient (Papp) at 3 h came to 6.1 ×10⁻⁶ cm/s.
On to `CNC(=C[N+](=O)[O-])NCCSCc1ccc(CN(C)C)o1` [RANITIDINE], for which the apparent permeability (Papp) at 3 h in the data set “in vitro [1]” worked out at 1.6 ×10⁻⁶ cm/s.
As to `O=C(Nc1cccc(C(F)(F)F)c1)c1cc(Cl)ccc1O`, in the data set with SARS-CoV-2, the IC50 was found to be 0.49 µM. For the same compound, the remaining at 6 h, 50 µM in [2] was found to be 47%. Besides, the CC50 with Vero C1008 amounted to 5.95 µM. In the data set “in vitro [1]”, this compound yielded an apparent permeability coefficient (Papp) at 3 h of 4.2 ×10⁻⁶ cm/s. Also, in the data set “in vitro [3]”, the CC50 at 24 h worked out at 100 µM.
As for `O=C(Nc1cccc(Cl)c1)c1cc(Cl)ccc1O`, the concentration for half-maximal inhibition (IC50) with SARS-CoV-2 stood at 0.39 µM. In data set [2], the remaining at 6 h, 50 µM amounted to 33%. The compound further gave a CC50 in the data set with Vero C1008 of 2.46 µM. In “in vitro [1]”, this compound came in with a Papp at 3 h of 8.6 ×10⁻⁶ cm/s.
Consider `O=C(Nc1ccc([N+](=O)[O-])cc1)c1cc(Cl)ccc1O`, for which the IC50 in the data set with SARS-CoV-2 was determined as 1.11 µM. The permeability in data set [4] is 12.4 10^-6 cm/s.
In the case of `Cc1ccc(CNC(=O)c2cc(Cl)ccc2O)cc1`, the CC50 in the data set on Vero C1008 was found to be 47.7 µM. The same compound showed an apparent permeability coefficient (Papp) at 3 h in the data set “in vitro [1]” of 42.6 ×10⁻⁶ cm/s.
The like results for `Cc1ccc(O)c(C(=O)Nc2ccc([N+](=O)[O-])cc2Cl)c1` were, in that order, 5.68 µM and 20.9 ×10⁻⁶ cm/s.
For `O=C(Nc1cccc(F)c1)c1cc(Cl)ccc1O`, in that order: 3.63 µM and 3.7 ×10⁻⁶ cm/s.
Compound `O=C(Nc1ccc([N+](=O)[O-])cc1Cl)c1ccccc1` had a CC50 with Vero C1008 of over 100 µM. Also, the Papp at 3 h in the data set “in vitro [1]” worked out at 42.2 ×10⁻⁶ cm/s.
In turn, `O=C(Nc1ccc(N2CCCCC2)cc1)c1cc(Cl)ccc1O` had a CC50 with Vero C1008 of 65.9 µM. This compound showed an apparent permeability (Papp) at 3 h in the data set “in vitro [1]” of 43.3 ×10⁻⁶ cm/s.
With `O=C(Nc1ccc([N+](=O)[O-])cc1Cl)c1cc(Cl)ccc1O` [NICLOSAMIDE], the IC50 in the data set with SARS-CoV-2 was found to be 0.4 µM. For the same compound, the bioavailability in data set [5] turned out to be 10%. Moreover, in the data set with Vero E6, the inhibition entry is “Active”. Besides, the CC50 in the data set on Vero C1008 was determined as 1.03 µM. In the data set “in vitro [1]”, this compound registered a Papp at 3 h of 8.5 ×10⁻⁶ cm/s.
Regarding `Cc1c(O)cccc1C(=O)N[C@@H](CSc1ccccc1)[C@H](O)CN1C[C@H]2CCCC[C@H]2C[C@H]1C(=O)NC(C)(C)C`, the IC50 with SARS-CoV-2 was 3.3 µM.
Consider `O=C(Nc1cccc(O)c1)c1cc(Cl)ccc1O`, for which, in “in vitro [6]”, the CC50 at 48 h is over 100 µM. Further, in “in vitro [1]”, the Papp at 3 h stood at 15.9 ×10⁻⁶ cm/s.
Compound `O=C(Nc1ccc(F)c(Cl)c1)c1cc(Cl)ccc1O` had a CC50 with Vero C1008 of 2.44 µM. In addition, the Papp at 3 h in “in vitro [1]” amounted to 11.5 ×10⁻⁶ cm/s.
Turning to `O=C(Nc1ccc(C(F)(F)F)cc1)c1cc(Cl)ccc1O`, the IC50 in the data set on SARS-CoV-2 was determined as 0.38 µM. The same compound displayed a Papp at 3 h in the data set “in vitro [1]” of 6.9 ×10⁻⁶ cm/s.
Take `COc1ccc2cc1Oc1ccc(cc1)C[C@H]1c3c(cc4c(c3Oc3cc5c(cc3OC)CCN(C)[C@@H]5C2)OCO4)CCN1C` [CEPHARANTHINE]: in the data set with SARS-CoV-2, the IC50 was 2.8 µM.
Take `O=C(Nc1ccccc1)c1cc(Cl)ccc1O`: the IC50 in the data set with SARS-CoV-2 was 8.59 µM. The compound also displayed a CC50 in the data set on Vero C1008 of 19.2 µM. The Papp at 3 h in the data set “in vitro [1]” was determined as 16 ×10⁻⁶ cm/s.
`CC(C)(C)c1cccc(NC(=O)c2cc(Cl)ccc2O)c1`: in the data set with SARS-CoV-2, the IC50 worked out at 1.51 µM. For the same compound, in data set [7], the selectivity ratio came to 1.6. The compound also returned a CC50 in the data set on Vero C1008 of 2.36 µM. Besides, the apparent permeability (Papp) at 3 h in “in vitro [1]” is 18.7 ×10⁻⁶ cm/s.
Regarding `O=C(Nc1cccc([N+](=O)[O-])c1)c1cc(Cl)ccc1O`, the IC50 with SARS-CoV-2 is 1.29 µM. This compound also yielded a CC50 in the data set on Vero C1008 of 3.53 µM. Moreover, the apparent permeability coefficient (Papp) at 3 h in the data set “in vitro [1]” is 19.5 ×10⁻⁶ cm/s.
In turn, `Cc1cccc(CNC(=O)c2cc(Cl)ccc2O)c1` showed a CC50 in the data set with Vero C1008 of 82.4 µM. In the data set “in vitro [1]”, this compound yielded a Papp at 3 h of 28.4 ×10⁻⁶ cm/s.
Turning to `O=C(Nc1ccc([N+](=O)[O-])cc1Cl)c1cc(F)ccc1O`, the CC50 with Vero C1008 was found to be 8.15 µM. Further, the apparent permeability (Papp) at 3 h in the data set “in vitro [1]” turned out to be 30.7 ×10⁻⁶ cm/s.
With `O=C(Nc1ccc([N+](=O)[O-])cc1Cl)c1ccccc1O`, the IC50 in the data set with SARS-CoV-2 is 1.68 µM. Also, the selectivity ratio in [7] came out at 1.2. In the data set with Vero C1008, this compound yielded a CC50 of 2.03 µM. Further, the Papp at 3 h in “in vitro [1]” was 15.3 ×10⁻⁶ cm/s. The CC50 at 24 h in “in vitro [3]” turned out to be 100 µM.
Compound `O=C(Nc1ccc(O)cc1)c1cc(Cl)ccc1O` showed a CC50 at 48 h in “in vitro [6]” of over 100 µM. In “in vitro [1]”, the apparent permeability (Papp) at 3 h amounted to 33.1 ×10⁻⁶ cm/s.
Take `O=C(Nc1ccc(O[C@@H]2O[C@H](CO)[C@@H](O)[C@H](O)[C@H]2O)cc1)c1cc(Cl)ccc1O`: the CC50 in the data set on Vero C1008 was over 100 µM. In “in vitro [1]”, this compound returned an apparent permeability (Papp) at 3 h of 1.9 ×10⁻⁶ cm/s.
`O=C(Nc1ccc([N+](=O)[O-])c(Cl)c1)c1cc(Cl)ccc1O`: the IC50 in the data set with SARS-CoV-2 worked out at 0.057 µM. In addition, in data set [8], the remaining at 100 µM turned out to be 78%. Also, the remaining at 6 h, 50 µM in [2] was determined as 41%. Moreover, in the data set on Vero E6, the inhibition result is “Active”.
`O=C(Nc1ccc(F)cc1)c1cc(Cl)ccc1O` registered a CC50 in the data set with Vero C1008 of 6.78 µM. Besides, the permeability in data set [4] is given as 18.2 10^-6 cm/s.

For orientation: Papp means the rate of passage across a membrane or cell layer, normalised by area and donor concentration. What is called IC50 is the concentration that inhibits the measured activity by half. Usually bioavailability stands for the share of a dose that reaches the circulation, judged against a reference dose that is usually intravenous.

These data come from ChEMBL document CHEMBL5131509 (Eur J Med Chem, 2022).
